{"source": "patent US8946382B2", "about": "“Apelin peptides and methods of use” (The United States of America, as represented by the …, priority 2009, dated 2015)", "key": {"[1]": {"system": "human blood vessel endothelial (HMEC-1) cells", "test": "Proliferation assay (ATPLITE), HMEC-1", "format": "cell-based", "conditions": "FIGS. 3E, 3F, 6", "source_text": "(§1) Proliferation response profiles of apelin, salcut-NH2, salcut-Gly, and/or salcut-OH on a variety of endothelial and tumor cell lines or primary endothelial cells were obtained using the following method. Human blood vessel endothelial cells (HMEC-1), human primary microvascular dermal EC (dB1), human lymphatic endothelial cells (LEC), human mast cells (HMC-1), human breast cancer cells (MCF-7; T47D), human gastric cancer cells (HTB 103), human lung cancer cells (A549), monkey endothelial cells (CRL 1780), and porcine aortic endothelial cells (PAE) were seeded at 25,000 cells per well at 50 μl volume in appropriate media containing 0.5% serum in a 96 well plate. After overnight incubation the peptide was added in serum free media and cells were incubated for 3-5 days. To measure growth proliferation, the adenosine triphosphate ATPLITE™ one-step assay (PerkinElmer), which is based on firefly luciferase and has high sensitivity for quantification of viable cells, was used. Data were expressed as mean plus minus standard deviation. Statistical analyses were performed using Student's t-test, p values less than 0.05 were considered statistically significant.\nEndothelial cell proliferation assays were performed as described above with both spontaneously immortalized porcine aortic endothelial (PAE) cells and SV40 immortalized human dermal microvascular endothelial (HMEC-1)."}, "MDA-MB-345 cells": {"system": "MDA-MB-345 cells", "test": "Binding of biotinylated salcut-NH2 to cells (fluorescent labeling)", "format": "cell-based, human"}, "[2]": {"system": "human breast cancer cell line MDA-MB-435", "test": "Proliferation assay, MDA-MB-435", "format": "cell-based", "conditions": "for proliferative response over dose range: dose range of 1 nM to 1 uM; for relative potency in proliferation assays: salcut-NH2 of two manufacturers vs biotinylated salcut, FIG. 14A-14C", "source_text": "An N-terminal biotinylated salcut-NH2 ligand was synthesized (a single biotin moiety was attached to the amino-terminal leucine residue). Validity of the chemical composition of the biotinylated salcut-NH2 was accomplished using amino acid sequence analysis and MADLI-TOF mass spectrometry characterization."}, "APJ receptor": {"target": "T1, APJ receptor (Homo sapiens, UniProt P35414)", "T1 sequence (P35414 1-380)": "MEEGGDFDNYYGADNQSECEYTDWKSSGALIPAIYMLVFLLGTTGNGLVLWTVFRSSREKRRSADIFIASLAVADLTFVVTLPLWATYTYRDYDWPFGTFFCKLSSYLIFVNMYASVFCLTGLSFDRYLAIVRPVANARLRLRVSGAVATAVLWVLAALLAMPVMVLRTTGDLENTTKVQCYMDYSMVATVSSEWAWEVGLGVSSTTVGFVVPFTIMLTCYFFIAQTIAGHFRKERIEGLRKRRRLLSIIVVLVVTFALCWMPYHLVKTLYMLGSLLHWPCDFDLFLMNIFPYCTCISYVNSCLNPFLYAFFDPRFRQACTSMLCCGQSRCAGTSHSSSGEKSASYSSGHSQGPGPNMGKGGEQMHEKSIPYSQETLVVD", "conditions": "cited from earlier work"}, "[3]": {"target": "T2, apelin G protein receptor (known as APJ) (Homo sapiens, UniProt P35414)", "T2 sequence (P35414 1-380)": "T1 sequence (P35414 1-380)", "conditions": "Tatemoto et al. 1998; cited from earlier work"}, "[4]": {"system": "porcine aortic endothelial (PAE) cells", "test": "In vitro tube formation assay", "format": "cell-based", "experimental": "Porcine aortic endothelial (PAE) cells were stably transfected with Green Fluorescent Protein (GFP) and seeded at a concentration of 18,000 cells per well of a 96-well culture plate. The wells were coated with […] basement membrane matrix (Invitrogen, CA). Cells were resuspended in medium at a concentration of 2.25×10^5 to 2.5×10^5 cells/ml. An […] (18,000-20,000) cells were added per well. Positive control cells were cultured with medium supplemented with 1.0% fetal bovine serum (FBS). Negative control cells were cultured with serum-free medium. […] After three or more hours of incubation, cells were assessed for tube formation and were photographed. Assays were performed in triplicate."}, "[5]": {"system": "endothelial and tumor cell lines or primary endothelial cells", "test": "Proliferation response (ATPLITE one-step assay) on a variety of endothelial and tumor cell lines", "format": "cell-based", "conditions": "3E", "source_text": "as §1"}, "rat aortic ring": {"system": "rat aortic ring", "test": "Rat aortic ring assay (vessel outcropping)", "format": "cell-based", "experimental": "On day 0, rats were euthanized and decapitated, and aortas were harvested and transferred to a culture dish containing EGM-2 with growth factors (20 ml media; Clonetics). Fibroadipose tissue and other non-aortic tissue were removed. Using dissecting microscope, the aorta was sectioned into 1 mm-long rings. Aortic rings were then rinsed 6-8× with EGM-2 with growth factors. Aortic rings were each placed in the center of a matrix (GELTREX™; Invitrogen Corp)-coated culture well. Aortic tissue was covered with 250 μl GELTREX™ and each well was incubated with 1 ml EGM-2 with growth factors supplemented for 24 hours at 37° C., 5% CO2.\nOn day 1, media with growth factors was removed, 250 μl of media (without growth factors) with either 0.1 nM, 1.0 nM, or 10 nM of salcut-NH2 was added to each well and incubated at 37° C., 5% CO2 for 5-7 days."}, "[6]": {"system": "human gastric cancer cell line HTB-103", "test": "Proliferation assay (ATPLITE), HTB 103", "format": "cell-based", "conditions": "FIG. 5", "source_text": "as §1"}, "[7]": {"system": "human mast cell line HMC-1", "test": "Proliferation assay (ATPLITE), HMC-1", "format": "cell-based", "conditions": "FIG. 5", "source_text": "as §1"}, "[8]": {"system": "human lung cancer cell line A549", "test": "Proliferation assay (ATPLITE), A549", "format": "cell-based", "source_text": "as §1"}, "[9]": {"system": "human breast cancer cell line MCF-7", "test": "Proliferation assay (ATPLITE), MCF-7", "format": "cell-based", "conditions": "1 nM to 1 μM dose range; FIG. 4A", "source_text": "as §1"}, "[10]": {"system": "A549 human bronchioloalveolar cancer cells", "test": "Nude mouse xenograft study", "format": "in vivo, nude mice", "conditions": "10 μM", "experimental": "(§2) Six week old female nude mice were used in this study; ten mice were used per test group. A549 human bronchioloalveolar cancer cells were cultured at the SAIC/Frederick facility. 1×10^7 A549 cells were injected subcutaneously in the hindquarter of each nude mouse. The following treatment regime was started seven days following tumor injection: Group 1—PBS control; Group 2—salcut-NH2 peptide (10 μM). Appropriate Groups were treated with 25 μl injections at four corners around the tumor, three times per week for five weeks. Mice were inspected, weighed, and tumors measured (H×W×L) three times per week with calipers. Following completion of the experiment, mice were euthanized, tumors excised, and cut into four pieces. Two segments were frozen and stored at −80° C. and two segments were paraffin embedded for pathology.\nas §2, with “In another experiment, six” for “Six”, “(10 pM); Group 3—salcut-NH2 peptide (10 nM); Group 4—salcut-NH2 peptide (10” for “(10”, “100” for “25”, “intraperitoneally,” for “at four corners around the tumor,”, “four” for “five”"}}, "note": "“Also recorded” adds a separate entry of the source. Where no end group is shown, it is not given here. The star is where a group is joined. Biotin = O=C1N[C@H]2[C@H](CS[C@H]2CCCCC(=O)*)N1"}
{"substance": "salcut-Gly: glycine-extended form of human apelin-36 (42-57) (LVQPRGSRNGPGPWQGG; homo sapiens)", "values": [{"measurement": "effect on HMEC-1 proliferation", "setting": "[1]", "result": "non-responsive over the dose range tested; also recorded: minor effect on proliferation; also recorded: do not have a statistically significant effect on cell growth"}, {"measurement": "effect on HMEC-1 proliferation", "setting": "[1]; listed as salcut Gly", "result": "no effect on HMEC-1 cell proliferation"}]}
{"substance": "biotinylated salcut: N-terminal biotinylated salcut-NH2 ligand; a single biotin moiety attached to the amino-terminal leucine residue (Biotin-LVQPRGSRNGPGPWQG-NH2; SMILES CC(C)C[C@H](NC(=O)CCCC[C@@H]1SC[C@@H]2NC(=O)N[C@@H]21)C(=O)N[C@H](C(=O)N[C@@H](CCC(N)=O)C(=O)N1CCC[C@H]1C(=O)N[C@@H](CCCNC(=N)N)C(=O)NCC(=O)N[C@@H](CO)C(=O)N[C@@H](CCCNC(=N)N)C(=O)N[C@@H](CC(N)=O)C(=O)NCC(=O)N1CCC[C@H]1C(=O)NCC(=O)N1CCC[C@H]1C(=O)N[C@@H](Cc1c[nH]c2ccccc12)C(=O)N[C@@H](CCC(N)=O)C(=O)NCC(N)=O)C(C)C)", "values": [{"measurement": "binding to cells (fluorescent labeling)", "setting": "MDA-MB-345 cells", "result": "high intensity fluorescent labeling"}, {"measurement": "proliferative response over dose range", "setting": "[2]", "result": "large change in response"}, {"measurement": "relative potency in proliferation assays", "setting": "[2]", "result": "equipotent in proliferation assays"}]}
{"substance": "apelin-17", "values": [{"measurement": "binding to the APJ receptor", "setting": "APJ receptor", "result": "can bind the APJ receptor"}, {"measurement": "potency of peptide-induced acidification rates", "setting": "[3]", "result": "moderately potent"}]}
{"substance": "salcut-OH: human apelin-36 (42-57), the free-acid derivative of salcut (LVQPRGSRNGPGPWQG-OH)", "values": [{"measurement": "effect on HMEC-1 proliferation", "setting": "[1]", "result": "minor effect on proliferation; also recorded: do not have a statistically significant effect on cell growth"}, {"measurement": "effect on HMEC-1 proliferation", "setting": "[1]; listed as Salcut-OH", "result": "non-responsive over the dose range tested"}, {"measurement": "effect on HMEC-1 proliferation", "setting": "[1]; listed as salcut OH", "result": "no effect on HMEC-1 cell proliferation"}]}
{"substance": "(Ala13)-apelin-13 [reference compound]", "values": [{"measurement": "effect of antagonist on endothelial cell tube formation", "setting": "[4]; in the presence of 1 nM apelin-13, FIG. 8", "result": "inhibited endothelial cell tube formation"}]}
{"substance": "salcut-NH2: amide derivative of human apelin-36 (42-57), sixteen amino acid peptide from residues 42-57 of apelin preproprotein (LVQPRGSRNGPGPWQG-NH2)", "values": [{"measurement": "concentration having a suppressive effect on cell proliferation", "setting": "[5]; FIGS. 3A-3D, 3G, 3I-3O", "result": "≥ 10", "unit": "nM"}, {"measurement": "cell proliferation (relative luminescent units [RLU])", "setting": "[5]; compared to cells cultured in the absence of these compounds (0 Rx), FIGS. 3A-3C, 3G-3O", "result": "increases"}, {"measurement": "number of vessels forming from the aortic ring", "setting": "rat aortic ring; 0.1 nM, 1.0 nM, 10 nM, 5-7 days, FIG. 9", "result": "number of vessels formed increase with increasing concentration; also recorded: increased number of vessels forming from the aortic ring"}, {"measurement": "vessel formation within the aortic ring", "setting": "rat aortic ring; 10 nM dose", "result": "Vessels begin to form with the ring; also recorded: vessels were beginning to form within the aortic ring"}, {"measurement": "inhibition of binding of biotinylated salcut-NH2 to cells", "setting": "MDA-MB-345 cells; unlabeled peptide in the presence of biotinylated salcut-NH2", "result": "can be inhibited"}, {"measurement": "proliferative response over dose range", "setting": "[2]", "result": "large change in response"}, {"measurement": "relative potency in proliferation assays", "setting": "[2]", "result": "equipotent in proliferation assays"}, {"measurement": "proliferative dose response", "setting": "[6]", "result": "biphasic response curves; also recorded: biphasic (rise and fall) response"}, {"measurement": "proliferative dose response", "setting": "[7]", "result": "biphasic response curves; also recorded: only responded to lower concentrations of salcut-NH2 by stimulating proliferation"}, {"measurement": "effect on proliferation (stimulation)", "setting": "[8]; 10 nM to 100 pM range, FIG. 3D", "result": "neither apelin-13 (65-77) nor salcut-NH2 affect proliferation; also recorded: does not stimulate proliferation"}, {"measurement": "effect on proliferation at higher concentrations", "setting": "[8]; higher concentrations, 1 nM to 1 μM dose range (FIG. 4B)", "result": "lack of a statistically significant proliferative response; also recorded: cell growth suppressive effect at higher concentrations; also recorded: did not respond in a statistically significant manner"}, {"measurement": "proliferative dose response", "setting": "[9]", "result": "biphasic response curve; also recorded: biphasic (rise and fall) response"}, {"measurement": "effect on HMEC-1 proliferation", "setting": "[1]", "result": "biphasic response curve; also recorded: potent stimulators of HMEC-1 proliferation; also recorded: biphasic (rise and fall) response"}, {"measurement": "tumor growth", "setting": "[10]; 10 pM, 10 nM, 100 μl intraperitoneally, three times per week for four weeks, compared to PBS, FIG. 12", "result": "reduced tumor growth"}, {"measurement": "tumor growth", "setting": "[10]; 25 μl injections at four corners around the tumor, three times per week for five weeks, compared to PBS", "result": "dramatic reduction in tumor growth"}, {"measurement": "tumor growth", "setting": "[10]; 100 μl intraperitoneally, three times per week for four weeks", "result": "highly statistically significant (<0.005) suppression of tumor growth"}, {"measurement": "concentration at which a suppressive effect on tube formation was observed", "setting": "[4]", "result": "exceeding 10 nM"}]}
